Assay results: PMC3920478, “Small molecule-mediated refolding and activation of myosin motor function” (eLife, 2014)

Target: β-cardiac myosin (Sus scrofa, UniProt P79293)
Test: Steady-state basal and actin-activated Mg2+-ATPase (NADH-coupled assay)
Format: biochemical, Porcine
Protocol: Rabbit fast skeletal muscle heavy meromyosin (HMM) was prepared as described by [Margossian and Lowey (1982)]. Porcine β-cardiac myosin was prepared essentially as described by [Pant et al. (2009)] and [Jacques et al. (2008)] and further purified by gel filtration. S1 and HMM fragments were produced by proteolytic digestion of the full-length proteins with 0.05 mg/ml papain (10 min, 25°C) for S1 and with 0.1 mg/ml TLCK-treated α-chymotrypsin (15 min, 25°C) for HMM. Reactions were stopped with specific protease inhibitors for papain (10 µM E−64) and chymotrypsin (10 µM chymostatin, 1 mM benzamidine). Proteolytic fragments were further purified by actin-coprecipitation. Pellets were washed twice and myosin was extracted from the pellets using ATP containing buffer. Gel filtration was used to further increase purity of myosin S1 and HMM fragments. His-tagged motor domain constructs of Dd myosin-2, Dd myosin-1B, Dd myosin-1C, Dd myosin-1D, Dd myosin-1E, Dd myosin-5b fused to two Dd α-actinin repeats substituting the light-chain binding domains ([Anson et al., 1996]) were expressed in Dd AX3-ORF + cells and purified by Ni^2+-chelate affinity chromatography ([Manstein and Hunt, 1995]).
Basal and actin-activated Mg^2+-ATPase activities were measured using the NADH-coupled assay described previously ([Furch et al., 1998]) adapted for higher throughput screens for a temperature controlled plate reader (Multiscan FC, Thermo Scientific, Waltham, MA) at 25°C. […] Control measurements were carried out in the absence of drug, as well as in the presence of according concentrations of the non-binding (−)-enantiomer EMD 57439 to account for possible absorption effects. […] Data points are mean values from 3 to 5 independent experiments. Error bars indicate standard deviations.

Chain of β-cardiac myosin (P79293 1-810 limits assumed): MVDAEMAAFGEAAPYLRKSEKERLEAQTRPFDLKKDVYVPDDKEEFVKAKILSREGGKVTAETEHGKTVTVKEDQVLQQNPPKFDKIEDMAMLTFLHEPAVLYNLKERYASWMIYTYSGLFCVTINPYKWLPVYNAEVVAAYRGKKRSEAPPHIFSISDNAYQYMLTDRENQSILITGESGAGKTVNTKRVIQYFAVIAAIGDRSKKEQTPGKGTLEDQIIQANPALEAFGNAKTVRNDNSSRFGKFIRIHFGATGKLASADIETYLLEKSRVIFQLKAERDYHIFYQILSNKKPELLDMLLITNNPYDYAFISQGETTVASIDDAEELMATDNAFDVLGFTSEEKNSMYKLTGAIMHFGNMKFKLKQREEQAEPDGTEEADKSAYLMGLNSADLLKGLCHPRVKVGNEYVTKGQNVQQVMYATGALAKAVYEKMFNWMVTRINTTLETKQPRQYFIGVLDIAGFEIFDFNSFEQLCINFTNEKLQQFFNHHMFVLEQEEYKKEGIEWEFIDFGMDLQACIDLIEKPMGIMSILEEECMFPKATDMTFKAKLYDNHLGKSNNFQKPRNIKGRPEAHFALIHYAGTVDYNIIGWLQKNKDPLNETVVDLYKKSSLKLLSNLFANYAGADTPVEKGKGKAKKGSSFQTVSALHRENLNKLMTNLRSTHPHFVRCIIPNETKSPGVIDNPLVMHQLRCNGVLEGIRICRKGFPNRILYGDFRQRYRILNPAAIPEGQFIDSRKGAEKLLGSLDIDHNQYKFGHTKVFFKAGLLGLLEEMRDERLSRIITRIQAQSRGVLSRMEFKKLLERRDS

COc1ccc(C(=O)N2CCCc3cc(C4=NNC(=O)SC4C)ccc32)cc1OC (centres unmarked) [EMD 57033]
Normalized maximal ATPase activation (basal): 1.5 | Effect on KM,ATP (Lineweaver–Burk plot) (25 µM EMD 57033): remains unaffected | kcat increase (Lineweaver–Burk plot) (25 µM EMD 57033): 1.5 fold | kcat ∼Change (−fold), increase (25 µM EMD 57033 vs control): 1.6 fold | kcat/KM(Actin) (initial slope) ∼Change (−fold) (25 µM EMD 57033 vs control): ~15.8 fold | Normalized maximal ATPase activation (with 30 µM actin) (30 µM actin): 2.5 | kcat (actin-activated ATPase) (in presence of 25 µM EMD 57033): 0.19 ± 0.02 s⁻¹ | kcat/KM(Actin), calculated ratio of both values (in presence of 25 µM EMD 57033): 0.0528 µM^v1 s^−1 | Basal ATP turnover relative to that expected for 100% active protein (saturating EMD 57033): 1.5 fold | AC50 (β-Cardiac myosin-2 (S1, full-length), read-out: AC50 ATPase (half-maximal activation)): 7 µM | ATPase activity in excess of the value expected for a 100% active population of myosin heads (β-cardiac myosin and Dd myosin-2 preparations together): 30–50%
